Experiments:
A549 cells = details: data provided by National Cancer Institute; cited from earlier work
[1] = system: Skov-3 cells (human ovarian cancer); assay: FACS analysis of cell cycle stage by DNA content (mitotic arrest); assay type: cell-based; details: 24 hours treatment, paclitaxel at 10 nM
Experimental: FACS analysis to determine cell cycle stage by measuring DNA content was performed as follows. Skov-3 cells (human ovarian cancer) were split 1:10 for plating in 10 cm dishes and grown to subconfluence with RPMI 1640 medium containing 5% fetal bovine serum (FBS). The cells were then treated with either 10 nM paclitaxel, the test compound or 0.25% DMSO (vehicle for compounds) for 24 hours. Cells were then rinsed off the plates with PBS containing 5 mM EDTA, pelleted, washed once in PBS containing 1% FCS, and then fixed overnight in 85% ethanol at 4° C. Before analysis, the cells were pelleted, washed once, and stained in a solution of 10 μg propidium iodide and 250 μg of ribonuclease (RNAse) A per milliliter at 37° C. for half an hour. Flow cytometry analysis was performed on a Becton-Dickinson FACScan, and data from 10,000 cells per sample was analyzed with Modfit software.

SMILES	GI50 (A549 cells) [nM]	shift in the population of cells from G0/G1 cell cycle stage (2n DNA content) to G2/M cell cycle stage (4n DNA content) [1]
O=c1[nH]cc(F)c(=O)[nH]1 [5-fluorouracil]	1000	
COc1cccc2c1C(=O)c1c(O)c3c(c(O)c1C2=O)C[C@@](O)(C(=O)CO)C[C@@H]3O[C@H]1C[C@H](N)[C@H](O)[C@H](C)O1 [doxorubicin]	63	
NC(=O)NO [hydroxyurea]	500000	
CC(=O)O[C@H]1C(=O)[C@@]2(C)[C@H]([C@H](OC(=O)c3ccccc3)[C@]3(O)C[C@H](OC(=O)[C@H](O)[C@@H](NC(=O)c4ccccc4)c4ccccc4)C(C)=C1C3(C)C)[C@]1(OC(C)=O)CO[C@@H]1C[C@@H]2O [paclitaxel]	4	caused a shift in the population of cells from a G0/G1 cell cycle stage (2n DNA content) to a G2/M cell cycle stage (4n DNA content)

— patent publication US7119089B2, “Phenothiazine kinesin inhibitors” (Cytokinetics, Inc., priority 2001, dated 2006)
